{
  "source": "patent US20240316087A1",
  "about": "“Compositions And Methods For Inducing Apoptosis In Anaerobic Cells And Related Clinical Methods For Treating Cancer And Pathogenic Infections” (priority 2017, published 2024)",
  "key": {"[1]": {"test_system": "EBV, hepatitis C, CMV and herpes II virus", "experiment": "Viral load assays in treated patients", "format": "in vivo, human", "text": "These patients were selected as having been diagnosed with a heavy load, chronic viral infection and/or Stage IV cancer. Some of these subjects presented with only viral infection, and some with only Stage IV cancer, whereas a sizeable group of 64 subjects had co-morbid Stage IV cancer attended by a heavy load chronic viral infection. The principal viral subjects in these studies were Epstein Barr virus (EBV), hepatitis C virus, cytomegalovirus (CMV) and herpes virus.\nNagalase levels and viral load were quantified using conventional assays for each patient, before and after successive iv Salicinium® treatments, and after extended oral Salicinium follow-on therapy (using the […] and oral treatment protocol described in Example II, above)."}, "[2]": {"test_system": "alpha-N-acetylgalactosaminidase (nagalase)", "settings": "human, in vivo"}, "[3]": {"test_system": "circulating tumor cells (CTCs)", "experiment": "Salicinium induction of apoptosis in cultured circulating tumor cells from patient samples", "format": "cell-based, human", "text": "Circulating tumor cells (CTCs) were isolated and characterized from patients with diverse diagnoses of cancer (including a wide variety of primary cancer types, with and without metastasis) using conventional flow cytometry modified to a multiparameter flow cytometric panel employing magnetic bead separation methods to characterize CTCs and isolate them from patient blood samples. In one exemplary modified procedure for isolating and characterizing CTCs from breast cancer patients, the flow cytometry panel included CD45-PE/Cy7, CD31-RPE, pan cytokeratin-PE/Cy5, c-met-PE and MUC-1(CD227)-FITC. CTCs were identified as CD45-/CD31-/PanCK+/MUC1+and metastatic cells as CD45-/c-met+. CTC isolation and cultivation utilized PBMCs from patients isolated using ficoll centrifugation methods and incubated with EpCAM magnetic beads to isolate the CTCs.\nIsolated CTCs were cultured in serum free RPMI medium. […] Apoptosis quantification was based on observed cytoplasmic, nuclear and membrane changes diagnostic for apoptosis. In early stage of apoptosis, cells expand and become round, detach from adjacent cells or substrate and shrink. In the cytoplasm, the endoplasmic reticulum expands and turns vacuolar. In the nucleus, chromatin condenses in a crescent form around the nuclear membranes and becomes more basophilic. Eventually the nucleus fragments and cells convert to apoptotic bodies in containing fragmented nuclear and cellular materials. In vivo these apoptotic bodies are recognized and digested by phagocytes without raising inflammatory responses.\nData were analyzed using SPSS software, and T test methodology was used to compare data sets. A significance level of p<0.05 was considered statistically significant."}, "caspase-9": {"test_system": "caspase-9", "experiment": "Caspase-9 levels in Salicinium-treated versus control CTC samples", "format": "cell-based, human", "settings": "diverse CTCs from different cancer types", "text": "Additional studies evaluated caspase levels in CTC samples treated or untreated with Salicinium. Caspases are major executants of apoptosis. […] During apoptosis these pro-enzymes are converted into active enzymes which mediate apoptosis in part by degrading intracellular proteins, for example cytoskeletal proteins, causing profound morphological changes of cells. Caspase-3 is activated by upstream caspases (caspase-8, caspase-9 or caspase-10), and in turn Caspase-3 activates endonuclease CAD (caspase activated DNase). […] In apoptosis, ICAD is cut by caspase-3 and release CAD, followed by rapid fragmentation of DNA.\nCaspase-9 levels were compared in control CTC samples and Salicinium-treated CTC samples according to conventional assay methods."}, "[4]": {"settings": "967 patient CTC samples, helicidum 0.5 mg/ml, 24 hours"}},
  "data": [
    {"substance": "4-(beta-D-allopyranosyloxy)-benzaldehyde [Salicinium]", "values": [
      {"measurement": "treated subjects in whom high load viral infection became undetectable", "setting": "[1]; EBV and herpes II subjects, within six months following initial iv treatment", "value": 50, "unit": "%"},
      {"measurement": "drop in median viral loads", "setting": "[1]; EBV, hepatitis C, CMV and herpes II, first month", "value": "20-25%"},
      {"measurement": "additional drop in median viral loads", "setting": "[1]; EBV, hepatitis C, CMV and herpes II, within three months after treatment", "value": 20, "unit": "%"},
      {"measurement": "viral subjects entirely clear of detectable virus", "setting": "[1]; EBV, hepatitis C, herpes virus and CMV, after one year", "value": 87, "unit": "%"},
      {"measurement": "median nagalase level", "setting": "[2]", "value": 0.78, "unit": "Units"},
      {"measurement": "patients with pronounced reductions in nagalase levels", "setting": "[2]", "value": 83, "unit": "%"},
      {"measurement": "study patients with nagalase levels below 0.95 Units (normal range)", "setting": "[2]", "value": 86, "unit": "%"},
      {"measurement": "study patients with nagalase levels below 1.0 units", "setting": "[2]", "value": 72, "unit": "%"},
      {"measurement": "patient CTC samples showing no detectable apoptotic activity", "setting": "[3]; [4]", "value": 18, "unit": "%"},
      {"measurement": "patient CTC samples showing statistically significant sensitivity to induction of apoptosis", "setting": "[3]; [4]", "value": 82, "unit": "%"},
      {"measurement": "CTC cells in sample undergoing apoptosis", "setting": "[3]; majority of other cancer types tested, single exposure, 24-hour test period", "value": "20-25%"},
      {"measurement": "CTC cells in sample undergoing apoptosis", "setting": "[3]; more sensitive cancer types: lung, colorectal, sarcoma and renal cancer, single dose, 24 hours", "value": "30-35%"},
      {"measurement": "caspase-9 levels in treated versus control CTC samples", "setting": "caspase-9", "value": "potent induction of elevated caspase-9 levels"}
    ]}
  ]
}
